Article PMC10518257 (Nature Cancer, 2023)
“And” between values parts separate entries of the source, which are not always exact repeats. Equal values may be shown once.

Columns and labels:
[1] = target: T1, panel of 255 (vepafestinib) or 256 (all other inhibitors) recombinant kinases (Homo sapiens, UniProt P09619); test: Kinase selectivity profiling at a single concentration (Carna Biosciences); assay type: biochemical
T1 construct: purchased Carna Biosciences

[2] = target: T2, panel of 255 (vepafestinib) or 256 (all other inhibitors) recombinant kinases (Homo sapiens, UniProt P35968); test: as above; assay type: biochemical; conditions: 17 nM
T2 construct: purchased Carna Biosciences

[3] = target: T3, panel of 255 (vepafestinib) or 256 (all other inhibitors) recombinant kinases (Homo sapiens, UniProt Q08345); test: as above; assay type: biochemical
T3 construct: purchased Carna Biosciences
T3 sequence (Q08345 19-913): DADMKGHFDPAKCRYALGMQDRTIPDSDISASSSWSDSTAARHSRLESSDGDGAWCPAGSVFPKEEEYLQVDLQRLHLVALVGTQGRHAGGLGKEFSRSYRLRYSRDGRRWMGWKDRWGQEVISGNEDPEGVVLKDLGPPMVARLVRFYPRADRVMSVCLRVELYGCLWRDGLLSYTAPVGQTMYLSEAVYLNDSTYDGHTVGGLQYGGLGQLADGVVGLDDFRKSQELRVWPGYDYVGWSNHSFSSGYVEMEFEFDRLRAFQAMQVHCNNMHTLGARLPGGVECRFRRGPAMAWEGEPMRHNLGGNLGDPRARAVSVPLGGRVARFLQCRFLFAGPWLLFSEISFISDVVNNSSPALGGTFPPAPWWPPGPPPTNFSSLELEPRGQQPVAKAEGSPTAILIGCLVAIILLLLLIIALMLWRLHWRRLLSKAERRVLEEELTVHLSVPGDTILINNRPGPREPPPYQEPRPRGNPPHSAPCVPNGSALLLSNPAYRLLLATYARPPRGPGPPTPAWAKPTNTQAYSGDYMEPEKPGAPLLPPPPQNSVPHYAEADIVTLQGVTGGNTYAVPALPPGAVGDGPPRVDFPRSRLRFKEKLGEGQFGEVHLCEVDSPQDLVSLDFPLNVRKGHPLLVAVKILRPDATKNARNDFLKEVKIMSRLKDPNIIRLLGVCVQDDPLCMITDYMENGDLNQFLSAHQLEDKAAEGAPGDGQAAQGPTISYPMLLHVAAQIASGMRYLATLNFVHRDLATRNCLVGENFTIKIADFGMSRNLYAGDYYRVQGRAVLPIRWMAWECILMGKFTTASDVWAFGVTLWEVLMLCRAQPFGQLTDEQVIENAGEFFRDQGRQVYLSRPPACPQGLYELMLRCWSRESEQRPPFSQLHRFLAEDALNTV

[4] = target: T4, panel of 255 (vepafestinib) or 256 (all other inhibitors) recombinant kinases (Homo sapiens, UniProt P11362); test: as above; assay type: biochemical
T4 construct: purchased Carna Biosciences

[5] = target: T5, panel of 255 (vepafestinib) or 256 (all other inhibitors) recombinant kinases (Homo sapiens, UniProt P07949); test: as above; assay type: biochemical
T5 construct: purchased Carna Biosciences
T5 sequence (P07949 29-1114): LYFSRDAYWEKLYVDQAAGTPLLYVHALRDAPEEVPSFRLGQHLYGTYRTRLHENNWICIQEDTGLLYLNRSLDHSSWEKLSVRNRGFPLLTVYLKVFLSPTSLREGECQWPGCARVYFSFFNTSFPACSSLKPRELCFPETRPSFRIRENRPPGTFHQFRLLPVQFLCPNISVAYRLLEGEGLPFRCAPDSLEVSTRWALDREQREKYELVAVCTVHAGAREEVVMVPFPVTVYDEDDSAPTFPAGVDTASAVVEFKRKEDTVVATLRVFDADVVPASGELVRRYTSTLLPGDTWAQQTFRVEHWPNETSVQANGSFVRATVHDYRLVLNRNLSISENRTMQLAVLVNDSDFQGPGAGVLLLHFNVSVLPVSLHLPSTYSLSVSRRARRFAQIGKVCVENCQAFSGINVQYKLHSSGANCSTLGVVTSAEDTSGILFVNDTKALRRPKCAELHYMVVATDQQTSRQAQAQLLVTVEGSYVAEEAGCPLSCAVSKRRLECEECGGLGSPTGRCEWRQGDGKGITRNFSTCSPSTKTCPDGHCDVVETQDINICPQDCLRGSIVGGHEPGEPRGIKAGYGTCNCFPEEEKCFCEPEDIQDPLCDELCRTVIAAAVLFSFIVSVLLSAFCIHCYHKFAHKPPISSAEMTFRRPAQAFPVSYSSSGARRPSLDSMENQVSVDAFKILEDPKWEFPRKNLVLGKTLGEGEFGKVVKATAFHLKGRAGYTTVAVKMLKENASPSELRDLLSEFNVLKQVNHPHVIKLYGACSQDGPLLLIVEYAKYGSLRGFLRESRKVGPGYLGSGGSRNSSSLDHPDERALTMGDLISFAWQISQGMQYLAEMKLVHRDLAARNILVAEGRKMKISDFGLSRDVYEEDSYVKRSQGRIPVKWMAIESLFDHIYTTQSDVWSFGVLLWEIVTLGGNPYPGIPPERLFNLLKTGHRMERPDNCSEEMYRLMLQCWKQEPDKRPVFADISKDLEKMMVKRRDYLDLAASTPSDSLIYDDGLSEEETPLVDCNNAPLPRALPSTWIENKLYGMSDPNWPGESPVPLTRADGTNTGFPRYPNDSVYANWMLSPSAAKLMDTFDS

[6] = target: T6, panel of 255 (vepafestinib) or 256 (all other inhibitors) recombinant kinases (Homo sapiens, UniProt P22607); test: as above; assay type: biochemical
T6 construct: purchased Carna Biosciences
T6 sequence (P22607 23-806): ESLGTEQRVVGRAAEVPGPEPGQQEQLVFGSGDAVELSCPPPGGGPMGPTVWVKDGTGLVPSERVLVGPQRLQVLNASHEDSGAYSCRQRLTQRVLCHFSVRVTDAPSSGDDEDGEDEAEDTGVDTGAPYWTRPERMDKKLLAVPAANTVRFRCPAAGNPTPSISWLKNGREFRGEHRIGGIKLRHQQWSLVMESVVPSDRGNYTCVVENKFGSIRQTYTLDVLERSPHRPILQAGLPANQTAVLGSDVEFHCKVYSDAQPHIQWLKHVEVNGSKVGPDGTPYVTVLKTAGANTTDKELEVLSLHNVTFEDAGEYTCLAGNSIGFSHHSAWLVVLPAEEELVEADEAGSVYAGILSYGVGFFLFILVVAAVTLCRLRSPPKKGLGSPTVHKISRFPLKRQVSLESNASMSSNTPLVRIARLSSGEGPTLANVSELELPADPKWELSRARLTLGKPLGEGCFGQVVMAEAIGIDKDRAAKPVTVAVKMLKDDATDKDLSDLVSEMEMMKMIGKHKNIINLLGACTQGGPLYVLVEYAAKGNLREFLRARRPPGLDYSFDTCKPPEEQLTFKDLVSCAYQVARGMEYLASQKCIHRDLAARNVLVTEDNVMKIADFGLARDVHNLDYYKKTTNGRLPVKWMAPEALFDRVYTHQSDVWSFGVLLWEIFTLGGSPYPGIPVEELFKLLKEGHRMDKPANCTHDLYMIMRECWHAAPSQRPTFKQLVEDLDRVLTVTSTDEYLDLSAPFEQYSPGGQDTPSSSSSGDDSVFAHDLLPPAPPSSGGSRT

[7] = target: T7, panel of 255 (vepafestinib) or 256 (all other inhibitors) recombinant kinases (Homo sapiens, UniProt P36888); test: as above; assay type: biochemical
T7 construct: purchased Carna Biosciences
T7 sequence (P36888 27-993): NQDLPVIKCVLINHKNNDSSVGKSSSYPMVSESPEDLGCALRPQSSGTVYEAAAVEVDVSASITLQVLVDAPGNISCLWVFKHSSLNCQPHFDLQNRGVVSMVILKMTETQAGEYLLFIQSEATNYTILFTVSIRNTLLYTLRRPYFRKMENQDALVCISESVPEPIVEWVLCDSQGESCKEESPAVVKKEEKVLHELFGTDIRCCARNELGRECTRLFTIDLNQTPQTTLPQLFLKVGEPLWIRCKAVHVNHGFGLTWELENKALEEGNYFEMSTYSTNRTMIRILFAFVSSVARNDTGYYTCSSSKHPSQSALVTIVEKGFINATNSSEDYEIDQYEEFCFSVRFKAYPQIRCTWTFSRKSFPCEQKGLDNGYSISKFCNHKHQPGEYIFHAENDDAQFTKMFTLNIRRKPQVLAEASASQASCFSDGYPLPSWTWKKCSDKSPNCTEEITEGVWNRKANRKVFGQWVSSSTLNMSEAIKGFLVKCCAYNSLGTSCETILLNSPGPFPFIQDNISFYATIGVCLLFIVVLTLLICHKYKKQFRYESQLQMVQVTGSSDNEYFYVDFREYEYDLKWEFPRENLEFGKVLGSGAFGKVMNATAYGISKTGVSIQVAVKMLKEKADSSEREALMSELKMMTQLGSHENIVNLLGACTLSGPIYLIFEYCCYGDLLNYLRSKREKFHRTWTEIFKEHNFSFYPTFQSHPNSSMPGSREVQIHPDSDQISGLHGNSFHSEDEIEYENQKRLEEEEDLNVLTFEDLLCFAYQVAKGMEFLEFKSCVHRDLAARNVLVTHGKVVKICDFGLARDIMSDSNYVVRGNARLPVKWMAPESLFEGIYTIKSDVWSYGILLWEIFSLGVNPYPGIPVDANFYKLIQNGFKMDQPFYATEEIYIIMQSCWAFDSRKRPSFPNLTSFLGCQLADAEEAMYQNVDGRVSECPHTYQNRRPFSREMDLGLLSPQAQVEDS

[8] = target: T8, panel of 255 (vepafestinib) or 256 (all other inhibitors) recombinant kinases (Homo sapiens, UniProt P21802); test: as above; assay type: biochemical
T8 construct: purchased Carna Biosciences
T8 sequence (P21802 22-821): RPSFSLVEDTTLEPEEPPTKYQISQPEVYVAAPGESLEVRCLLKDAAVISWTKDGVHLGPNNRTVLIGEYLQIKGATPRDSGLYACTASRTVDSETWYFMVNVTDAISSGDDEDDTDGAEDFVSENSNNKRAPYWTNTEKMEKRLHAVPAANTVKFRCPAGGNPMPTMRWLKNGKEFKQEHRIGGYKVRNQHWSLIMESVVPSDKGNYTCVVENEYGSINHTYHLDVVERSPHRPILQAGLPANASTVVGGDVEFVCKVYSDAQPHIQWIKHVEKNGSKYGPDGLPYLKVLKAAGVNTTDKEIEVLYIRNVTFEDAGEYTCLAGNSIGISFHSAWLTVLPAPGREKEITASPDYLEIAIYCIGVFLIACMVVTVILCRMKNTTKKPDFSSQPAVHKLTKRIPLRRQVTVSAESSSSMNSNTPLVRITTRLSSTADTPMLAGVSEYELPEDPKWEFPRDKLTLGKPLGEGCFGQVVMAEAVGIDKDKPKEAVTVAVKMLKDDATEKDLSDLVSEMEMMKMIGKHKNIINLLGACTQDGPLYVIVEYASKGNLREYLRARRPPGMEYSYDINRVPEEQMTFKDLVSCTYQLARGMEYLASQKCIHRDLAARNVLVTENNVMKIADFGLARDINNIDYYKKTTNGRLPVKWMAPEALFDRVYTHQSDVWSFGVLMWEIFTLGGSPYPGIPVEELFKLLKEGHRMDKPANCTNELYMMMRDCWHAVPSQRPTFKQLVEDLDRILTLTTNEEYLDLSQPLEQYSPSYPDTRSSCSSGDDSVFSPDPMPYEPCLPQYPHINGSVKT

TT cells = test: Growth inhibition (alamarBlue, 96 h); assay type: cell-based, human; conditions: for raw viability signal (Source Data Fig. 3b-c): replicate sets; for IC50: Homo sapiens, 96 h, read-out: IC50 for Inhibition of Growth (95% CI)
LC-2/ad cells = test: Growth inhibition (alamarBlue, 96 h); assay type: cell-based, human; conditions: for IC50: Homo sapiens, LC-2-ad, 96 h, read-out: IC50 for Inhibition of Growth (95% CI); for raw viability signal (Source Data Fig. 3b-c): LC-2/Ad, replicate sets
[9] = target: T9, panel of 255 (vepafestinib) or 256 (all other inhibitors) recombinant kinases (Homo sapiens, UniProt Q15375); test: Kinase selectivity profiling at a single concentration (Carna Biosciences); assay type: biochemical; conditions: 22 nM
T9 construct: purchased Carna Biosciences

[10] = target: T10, panel of 255 (vepafestinib) or 256 (all other inhibitors) recombinant kinases (Homo sapiens, UniProt Q06418); test: as above; assay type: biochemical; conditions: 22 nM
T10 construct: purchased Carna Biosciences

[11] = target: T11, panel of 255 (vepafestinib) or 256 (all other inhibitors) recombinant kinases (Homo sapiens, UniProt O14757); test: as above; assay type: biochemical; conditions: 22 nM
T11 construct: purchased Carna Biosciences
T11 sequence (O14757 whole entry): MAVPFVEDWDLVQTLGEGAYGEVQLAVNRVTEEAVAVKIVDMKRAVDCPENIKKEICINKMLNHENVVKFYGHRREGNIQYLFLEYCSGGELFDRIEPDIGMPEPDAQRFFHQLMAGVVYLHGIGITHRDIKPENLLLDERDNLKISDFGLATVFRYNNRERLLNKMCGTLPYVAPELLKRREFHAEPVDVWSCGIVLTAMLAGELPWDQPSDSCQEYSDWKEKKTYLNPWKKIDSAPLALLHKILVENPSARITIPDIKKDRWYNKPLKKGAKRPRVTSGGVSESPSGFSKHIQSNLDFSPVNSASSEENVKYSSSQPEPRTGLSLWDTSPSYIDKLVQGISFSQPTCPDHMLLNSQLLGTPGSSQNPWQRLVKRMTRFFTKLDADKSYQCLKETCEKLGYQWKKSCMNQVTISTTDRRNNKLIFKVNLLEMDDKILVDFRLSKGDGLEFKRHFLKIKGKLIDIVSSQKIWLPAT

CO[C@]1(C(=O)N[C@@H](C)c2ccc(-n3cc(F)cn3)nc2)CC[C@H](c2nc(C)cc(Nc3cc(C)[nH]n3)n2)CC1 [Pralsetinib]
% Inhibiton PDGFRβ ([1]; 17 nM): 69.8%
% Inhibiton KDR [2]: 27.4%
% Inhibiton DDR1 ([3]; 17 nM): 72.1%
% Inhibiton FGFR1 ([4]; 17 nM): 57%
% Inhibiton RET ([5]; 17 nM): 96.7%
% Inhibiton FGFR3 ([6]; 17 nM): 34.3%
% Inhibiton FLT3 ([7]; 17 nM): 73.3%
% Inhibiton FGFR2 ([8]; 17 nM): 29.4%
raw viability signal (Source Data Fig. 3b-c) (TT cells; 0.01 nM): 22929.2 and 25490.7 and 28433.6 and 13300.2 and 25151.2
raw viability signal (Source Data Fig. 3b-c) (TT cells; 0.1 nM): 22974.2 and 25164.4 and 33337.3 and 15066.6 and 24111.4
raw viability signal (Source Data Fig. 3b-c) (TT cells; 1 nM): 21557.9 and 25049.8 and 31833.5 and 13551.8 and 21692.4
raw viability signal (Source Data Fig. 3b-c) (TT cells; 10 nM): 15259.3 and 23182.3 and 22444.5 and 12016.9 and 18286.5
raw viability signal (Source Data Fig. 3b-c) (TT cells; 100 nM): 9067.36 and 11673.9 and 13386.9 and 6206.3 and 13339.4
raw viability signal (Source Data Fig. 3b-c) (TT cells; 1000 nM): 7976.19 and 8542.52 and 11087 and 4402.24 and 11387.8
raw viability signal (Source Data Fig. 3b-c) (TT cells; 10000 nM): 7016.43 and 7739.61 and 10148.3 and 3836.13 and 9483.47
IC50 (TT cells): 0.03 µM
IC50 (LC-2/ad cells): 0.018 µM
raw viability signal (Source Data Fig. 3b-c) (LC-2/ad cells; 0.01 nM): 14336.4 and 23167.3
raw viability signal (Source Data Fig. 3b-c) (LC-2/ad cells; 0.1 nM): 14242.4 and 23367.8
raw viability signal (Source Data Fig. 3b-c) (LC-2/ad cells; 1 nM): 13261.9 and 22232.1
raw viability signal (Source Data Fig. 3b-c) (LC-2/ad cells; 10 nM): 6314.77 and 17508.9
raw viability signal (Source Data Fig. 3b-c) (LC-2/ad cells; 100 nM): 3979.18 and 8357.34
raw viability signal (Source Data Fig. 3b-c) (LC-2/ad cells; 1000 nM): 2225.01 and 2896.43
raw viability signal (Source Data Fig. 3b-c) (LC-2/ad cells; 10000 nM): 918.728 and 947.198

COc1ccc(CN2C3CC2CN(c2ccc(-c4cc(OCC(C)(C)O)cn5ncc(C#N)c45)cn2)C3)cn1 [Selpercatinib]
% Inhibiton PDGFRβ ([1]; 22 nM): 21.7%
% Inhibiton DDR1 ([3]; 22 nM): 18%
% Inhibiton EPHA7 [9]: 26.3%
% Inhibiton FGFR1 ([4]; 22 nM): 21.4%
% Inhibiton RET ([5]; 22 nM): 98.6%
% Inhibiton TYRO3 [10]: 38.2%
% Inhibiton FGFR3 ([6]; 22 nM): 35.9%
% Inhibiton CHK1 [11]: 15.2%
% Inhibiton FLT3 ([7]; 22 nM): 52.5%
% Inhibiton FGFR2 ([8]; 22 nM): 44.8%
raw viability signal (Source Data Fig. 3b-c) (TT cells; 0.01 nM): 21887.2 and 26414 and 26210.1 and 12272.3 and 26926.8
raw viability signal (Source Data Fig. 3b-c) (TT cells; 0.1 nM): 22325.8 and 26539.8 and 30465.8 and 11158.3 and 24677.4
raw viability signal (Source Data Fig. 3b-c) (TT cells; 1 nM): 20930 and 26176.3 and 29470 and 9614.13 and 22745.1
raw viability signal (Source Data Fig. 3b-c) (TT cells; 10 nM): 15380.3 and 24600.1 and 21198.9 and 8183.69 and 18775.6
raw viability signal (Source Data Fig. 3b-c) (TT cells; 100 nM): 9716.19 and 12690.1 and 13114.5 and 5163.1 and 15418.2
raw viability signal (Source Data Fig. 3b-c) (TT cells; 1000 nM): 9549.4 and 11696.3 and 12426 and 4648.23 and 14095
raw viability signal (Source Data Fig. 3b-c) (TT cells; 10000 nM): 9076.49 and 11812.8 and 14226.5 and 5846.11 and 12620.2
IC50 (TT cells): 0.023 µM
IC50 (LC-2/ad cells): 0.012 µM
raw viability signal (Source Data Fig. 3b-c) (LC-2/ad cells; 0.01 nM): 13499 and 23395.2
raw viability signal (Source Data Fig. 3b-c) (LC-2/ad cells; 0.1 nM): 14768.6 and 22354.3
raw viability signal (Source Data Fig. 3b-c) (LC-2/ad cells; 1 nM): 11358.1 and 22611.3
raw viability signal (Source Data Fig. 3b-c) (LC-2/ad cells; 10 nM): 5849.16 and 13692
raw viability signal (Source Data Fig. 3b-c) (LC-2/ad cells; 100 nM): 4303.48 and 6998.63
raw viability signal (Source Data Fig. 3b-c) (LC-2/ad cells; 1000 nM): 4639.86 and 5076.98
raw viability signal (Source Data Fig. 3b-c) (LC-2/ad cells; 10000 nM): 1761.41 and 1760.41
